Reference: ChEMBL document CHEMBL4823305, “Design, synthesis and antibacterial evaluation of novel 3-O-substituted 15-membered azalides possessing 1,2,3-triazole side chains” (2021)
≈ marks a conversion by molar mass, not a printed value.

Legend:
Type in all cases: functional
Staphylococcus aureus [1] = experiment: Antibacterial activity against erythromycin-susceptible Staphylococcus aureus ATCC25923 by broth microdilution method
Enterococcus faecalis = experiment: Antibacterial activity against vancomycin-susceptible Enterococcus faecalis ATCC29212 by broth microdilution method
Bacillus subtilis = experiment: Antibacterial activity against penicillin-susceptible Bacillus subtilis ATCC9372 by broth microdilution method
Enterococcus faecium = experiment: Antibacterial activity against clinical isolate erythromycin-resistant Enterococcus faecium by broth microdilution method
Staphylococcus aureus [2] = experiment: Antibacterial activity against methicillin-resistant Staphylococcus aureus ATCC43300 by broth microdilution method
Staphylococcus aureus [3] = experiment: Antibacterial activity against penicillin-resistant Staphylococcus aureus by broth microdilution method
Klebsiella pneumoniae = experiment: Antibacterial activity against Klebsiella pneumoniae ATCC10031 by broth microdilution method
Staphylococcus aureus [4] = experiment: Bactericidal activity against methicillin-resistant Staphylococcus aureus ATCC43300
[5] = Ratio of MBC for bactericidal activity against methicillin-resistant Staphylococcus aureus ATCC43300 to MIC for antibacterial activity against methicillin-resistant Staphylococcus aureus ATCC43300 by broth microdilution method

Question: Which results are given for `CC[C@H]1OC(=O)[C@H](C)[C@@H](OC(=O)NNC(=O)Cn2cc(-c3ccccc3)nn2)[C@H](C)[C@@H](O[C@@H]2O[C@H](C)C[C@H](N(C)C)[C@H]2O)[C@](C)(O)C[C@@H](C)CN(C)[C@H](C)[C@H]2OC(=O)O[C@@]21C`?
Answer: MIC (Staphylococcus aureus [1]): 32 mg/L (≈ 37.2 µM); MIC (Enterococcus faecalis): 16 mg/L (≈ 18.6 µM); MIC (Bacillus subtilis): 128 mg/L (≈ 149 µM); MIC (Enterococcus faecium): 64 mg/L (≈ 74.4 µM); MIC (Staphylococcus aureus [2]): 256 mg/L (≈ 298 µM); MIC (Staphylococcus aureus [3]): 256 mg/L (≈ 298 µM); MIC (Klebsiella pneumoniae): 32 mg/L (≈ 37.2 µM)

Question: For `CC[C@H]1OC(=O)[C@H](C)[C@@H](OC(=O)NNC(=O)Cn2cc(-c3ccccc3OC)nn2)[C@H](C)[C@@H](O[C@@H]2O[C@H](C)C[C@H](N(C)C)[C@H]2O)[C@](C)(O)C[C@@H](C)CN(C)[C@H](C)[C@H]2OC(=O)O[C@@]21C`, which MIC (Staphylococcus aureus [1]) is on record?
Answer: 64 mg/L (≈ 71.9 µM)

Question: What about the MIC (Enterococcus faecalis) of the same compound?
Answer: 64 mg/L (≈ 71.9 µM)

Question: What about the MIC (Bacillus subtilis) of the same compound?
Answer: 128 mg/L (≈ 144 µM)

Question: And the MIC (Enterococcus faecium)?
Answer: 128 mg/L (≈ 144 µM)

Question: And the MIC (Staphylococcus aureus [2])?
Answer: 256 mg/L (≈ 288 µM)

Question: What about the MIC (Staphylococcus aureus [3]) of the same compound?
Answer: 256 mg/L (≈ 288 µM)

Question: What about the MIC (Klebsiella pneumoniae) of the same compound?
Answer: 64 mg/L (≈ 71.9 µM)

Question: With `CCc1ccc(-c2cn(CC(=O)NNC(=O)O[C@H]3[C@H](C)[C@@H](O[C@@H]4O[C@H](C)C[C@H](N(C)C)[C@H]4O)[C@](C)(O)C[C@@H](C)CN(C)[C@H](C)[C@H]4OC(=O)O[C@]4(C)[C@@H](CC)OC(=O)[C@@H]3C)nn2)cc1` as the compound, how does the MIC (Staphylococcus aureus [1]) read?
Answer: 16 mg/L (≈ 18 µM)

Question: And the MIC (Enterococcus faecalis)?
Answer: 32 mg/L (≈ 36 µM)

Question: What about the MIC (Bacillus subtilis) of the same compound?
Answer: 32 mg/L (≈ 36 µM)

Question: What about the MIC (Enterococcus faecium) of the same compound?
Answer: 32 mg/L (≈ 36 µM)

Question: And the MIC (Staphylococcus aureus [2])?
Answer: 64 mg/L (≈ 72.1 µM)

Question: What about the MIC (Staphylococcus aureus [3]) of the same compound?
Answer: 64 mg/L (≈ 72.1 µM)

Question: What about the MIC (Klebsiella pneumoniae) of the same compound?
Answer: 16 mg/L (≈ 18 µM)

Question: Which MIC (Staphylococcus aureus [1]) does the source give for `CC[C@H]1OC(=O)[C@H](C)[C@@H](OC(=O)NNC(=O)Cn2cc(-c3cccc(Br)c3)nn2)[C@H](C)[C@@H](O[C@@H]2O[C@H](C)C[C@H](N(C)C)[C@H]2O)[C@](C)(O)C[C@@H](C)CN(C)[C@H](C)[C@H]2OC(=O)O[C@@]21C` here?
Answer: 64 mg/L (≈ 68.2 µM)

Question: And the MIC (Enterococcus faecalis)?
Answer: 32 mg/L (≈ 34.1 µM)

Question: And the MIC (Bacillus subtilis)?
Answer: 64 mg/L (≈ 68.2 µM)

Question: What about the MIC (Enterococcus faecium) of the same compound?
Answer: 128 mg/L (≈ 136 µM)

Question: What about the MIC (Staphylococcus aureus [2]) of the same compound?
Answer: 128 mg/L (≈ 136 µM)

Question: What about the MIC (Staphylococcus aureus [3]) of the same compound?
Answer: 256 mg/L (≈ 273 µM)

Question: And the MIC (Klebsiella pneumoniae)?
Answer: 32 mg/L (≈ 34.1 µM)

Question: Which results are given for `CC[C@H]1OC(=O)[C@H](C)[C@@H](OC(=O)NNC(=O)Cn2cc(-c3ccc(-c4ccccc4)cc3)nn2)[C@H](C)[C@@H](O[C@@H]2O[C@H](C)C[C@H](N(C)C)[C@H]2O)[C@](C)(O)C[C@@H](C)CN(C)[C@H](C)[C@H]2OC(=O)O[C@@]21C`?
Answer: MIC (Staphylococcus aureus [1]): 16 mg/L (≈ 17.1 µM); MIC (Enterococcus faecalis): 8 mg/L (≈ 8.55 µM); MIC (Bacillus subtilis): 16 mg/L (≈ 17.1 µM); MIC (Enterococcus faecium): 16 mg/L (≈ 17.1 µM); MIC (Staphylococcus aureus [2]): 32 mg/L (≈ 34.2 µM); MIC (Staphylococcus aureus [3]): 32 mg/L (≈ 34.2 µM); MIC (Klebsiella pneumoniae): 32 mg/L (≈ 34.2 µM); MBC (Staphylococcus aureus [4]): > 256 mg/L; Ratio [5]: >8

Question: For `CC[C@H]1OC(=O)[C@H](C)[C@@H](O[C@H]2C[C@@](C)(OC)[C@@H](O)[C@H](C)O2)[C@H](C)[C@@H](O[C@@H]2O[C@H](C)C[C@H](N(C)C)[C@H]2O)[C@](C)(O)C[C@@H](C)CN(C)[C@H](C)[C@@H](O)[C@]1(C)O` [AZITHROMYCIN], which MIC (Staphylococcus aureus [1]) is on record?
Answer: < 0.25 mg/L

Question: What about the MIC (Enterococcus faecalis) of the same compound?
Answer: 4 mg/L (≈ 5.34 µM)

Question: What about the MIC (Bacillus subtilis) of the same compound?
Answer: < 0.25 mg/L

Question: What about the MIC (Enterococcus faecium) of the same compound?
Answer: 256 mg/L (≈ 342 µM)

Question: And the MIC (Staphylococcus aureus [2])?
Answer: > 256 mg/L

Question: And the MIC (Staphylococcus aureus [3])?
Answer: > 256 mg/L

Question: What about the MIC (Klebsiella pneumoniae) of the same compound?
Answer: 2 mg/L (≈ 2.67 µM)

Question: With `CC[C@H]1OC(=O)[C@H](C)[C@@H](OC(=O)NNC(=O)Cn2cc(-c3ccc(OC)cc3)nn2)[C@H](C)[C@@H](O[C@@H]2O[C@H](C)C[C@H](N(C)C)[C@H]2O)[C@](C)(O)C[C@@H](C)CN(C)[C@H](C)[C@H]2OC(=O)O[C@@]21C` as the compound, how does the MIC (Staphylococcus aureus [1]) read?
Answer: 64 mg/L (≈ 71.9 µM)

Question: And the MIC (Enterococcus faecalis)?
Answer: 64 mg/L (≈ 71.9 µM)

Question: What about the MIC (Bacillus subtilis) of the same compound?
Answer: 128 mg/L (≈ 144 µM)

Question: And the MIC (Enterococcus faecium)?
Answer: 128 mg/L (≈ 144 µM)

Question: And the MIC (Staphylococcus aureus [2])?
Answer: 256 mg/L (≈ 288 µM)

Question: What about the MIC (Staphylococcus aureus [3]) of the same compound?
Answer: 256 mg/L (≈ 288 µM)

Question: What about the MIC (Klebsiella pneumoniae) of the same compound?
Answer: 32 mg/L (≈ 36 µM)

Question: Which MIC (Staphylococcus aureus [1]) does the source give for `CCCCc1ccc(-c2cn(CC(=O)NNC(=O)O[C@H]3[C@H](C)[C@@H](O[C@@H]4O[C@H](C)C[C@H](N(C)C)[C@H]4O)[C@](C)(O)C[C@@H](C)CN(C)[C@H](C)[C@H]4OC(=O)O[C@]4(C)[C@@H](CC)OC(=O)[C@@H]3C)nn2)cc1` here?
Answer: 8 mg/L (≈ 8.73 µM)

Question: And the MIC (Enterococcus faecalis)?
Answer: 4 mg/L (≈ 4.37 µM)

Question: And the MIC (Bacillus subtilis)?
Answer: 8 mg/L (≈ 8.73 µM)

Question: And the MIC (Enterococcus faecium)?
Answer: 16 mg/L (≈ 17.5 µM)

Question: What about the MIC (Staphylococcus aureus [2]) of the same compound?
Answer: 32 mg/L (≈ 34.9 µM)

Question: What about the MIC (Staphylococcus aureus [3]) of the same compound?
Answer: 32 mg/L (≈ 34.9 µM)

Question: And the MIC (Klebsiella pneumoniae)?
Answer: 16 mg/L (≈ 17.5 µM)

Question: And the MBC (Staphylococcus aureus [4])?
Answer: > 256 mg/L

Question: What about the Ratio [5] of the same compound?
Answer: >8

Question: Which results are given for `CC[C@H]1OC(=O)[C@H](C)[C@@H](OC(=O)NNC(=O)Cn2cc(-c3cccc(C)c3)nn2)[C@H](C)[C@@H](O[C@@H]2O[C@H](C)C[C@H](N(C)C)[C@H]2O)[C@](C)(O)C[C@@H](C)CN(C)[C@H](C)[C@H]2OC(=O)O[C@@]21C`?
Answer: MIC (Staphylococcus aureus [1]): 64 mg/L (≈ 73.2 µM); MIC (Enterococcus faecalis): 32 mg/L (≈ 36.6 µM); MIC (Bacillus subtilis): 64 mg/L (≈ 73.2 µM); MIC (Enterococcus faecium): 128 mg/L (≈ 146 µM); MIC (Staphylococcus aureus [2]): 128 mg/L (≈ 146 µM); MIC (Staphylococcus aureus [3]): 256 mg/L (≈ 293 µM); MIC (Klebsiella pneumoniae): 16 mg/L (≈ 18.3 µM)

Question: With `CC[C@H]1OC(=O)[C@H](C)[C@@H](OC(=O)NNC(=O)Cn2cc(-c3cccc([N+](=O)[O-])c3)nn2)[C@H](C)[C@@H](O[C@@H]2O[C@H](C)C[C@H](N(C)C)[C@H]2O)[C@](C)(O)C[C@@H](C)CN(C)[C@H](C)[C@H]2OC(=O)O[C@@]21C` as the compound, how does the MIC (Staphylococcus aureus [1]) read?
Answer: 64 mg/L (≈ 70.7 µM)

Question: And the MIC (Enterococcus faecalis)?
Answer: 32 mg/L (≈ 35.4 µM)

Question: What about the MIC (Bacillus subtilis) of the same compound?
Answer: 128 mg/L (≈ 141 µM)

Question: What about the MIC (Enterococcus faecium) of the same compound?
Answer: 128 mg/L (≈ 141 µM)

Question: And the MIC (Staphylococcus aureus [2])?
Answer: 256 mg/L (≈ 283 µM)

Question: What about the MIC (Staphylococcus aureus [3]) of the same compound?
Answer: 256 mg/L (≈ 283 µM)

Question: What about the MIC (Klebsiella pneumoniae) of the same compound?
Answer: 32 mg/L (≈ 35.4 µM)
